Test results: article PMC10295794, “Pharmacokinetic Analysis of Zonarol, a Marine Algal Hydroquinone, in Mice Using HPLC with Fluorescence Detection” (Antibiotics, 2023)
Where two headings read alike, the source gives them in different places.

Tests used:
[1] = cited from earlier work
[2] = cited from earlier work; remark: listed apart in the source
[3] = system: carrageenan-induced paw edema; set-up: method as in PMID 25409433; settings: mice, oral bolus 62.5 mg/kg at −0.5 h; edema at 2 and 4 h after carrageenan; cited from earlier work
[4] = Tissue distribution of zonarol after intravenous administration in mice; assay type: in vivo; settings: for concentration at 30 min / concentration at 15 min: mouse, iv, 10 mg/kg; for concentration at 30 min: brain; for concentration at 15 min: 15 min after administration
Protocol: (§1) HPLC analysis was carried out on a Shimadzu-20A series instrument (Shimadzu, Japan) connected to a fluorescence detector (RF-10A xl, Shimadzu, Japan). The signals from the fluorescence system were transmitted to LC Solution software for the purposes of analyzing and calculating the peak areas. Chromatographic separation was carried out on an RPAQUEOUS-AR-5 (4.6 × 250 mm) column. The HPLC was operated with a gradient mobile phase system consisting of water containing 0.1% formic acid (phase A) and methanol (phase B) at a flow rate of 1 mL/min. The pump was programmed as follows: phase B was maintained at 40% for the first 5 min, increased from 40% to 80% within the next 25 min, maintained at 80% for the next 10 min, increased to 100% for 10 min, and then decreased back to 40% for 10 min (total gradient time: 60 min). A 50 μL sample was injected into the system with the auto-sampler and conditioned at 4 °C, and the column temperature was maintained at 30 °C.
Blank tissue homogenates were prepared by collecting the liver, kidney, and brain from normal mice after anesthetization. Blank tissue homogenates were used to determine the specificity of zonarol. In the experimental mice, the livers, kidneys, and brains were collected at 15, 30, 60, 120 min after the intravenous administration, via the caudal veins, of 10 mg/kg of zonarol (n = 7). The tissue with added distilled water (mass/volume = 1:4) was homogenized.
Next, a 50 μL of tissue homogenate was mixed with 200 μL of MeCN for deproteinization. Then, the mixture was centrifuged at 9000 rpm for 5 min, and the supernatant was used for HPLC analysis.

[5] = system: DSS-induced ulcerative colitis; set-up: method as in PMID 25409433; settings: mice, oral 10 mg/kg/day for 2 weeks; cited from earlier work
[6] = Plasma concentration of zonarol after oral or intravenous administration in mice (HPLC-FI, non-compartmental analysis); assay type: in vivo; settings: for time within which plasma concentration remained over the LOQ: LOQ 11.1 ng/mL
Protocol: as §1
Male ddY mice (8 weeks old, 40 ± 2 g) were purchased from SLC Inc. (Shizuoka, Japan) and were acclimated to laboratory conditions for 1 week before experiment. The mice were housed in an air-conditioned room at 23 ± 2 °C with 12 h/12 h light–dark illumination cycles at a constant humidity (55 ± 10%) with free access to food (MR stock, Nosan, Japan) and tap water. Exsanguination and autopsy were performed under anesthesia with an overdose of isoflurane (Mylan EPD Ltd., Canonsburg, PA, USA). All procedures were reviewed and approved (R3-9 and R4-2) in terms of animal welfare by the Animal Ethics Committee of Tokyo University of Marine Science and Technology.
The mice were fasted for 12 h before the oral administration of zonarol. Blood samples were collected from the mouse tails at 15, 30, 45, 60, 90, 120, 240, and 480 min after the oral administration of 100 mg/kg of zonarol (n = 5).
The mice were not fasted before the intravenous administration of zonarol but were fasted after the test started. Blood samples were collected from the mouse tails, via the caudal veins, at 5, 15, 30, 45, 60, 90, 120, and 240 min after the intravenous administration of 10 mg/kg of zonarol (n = 6).
Blood samples were immediately centrifuged at 9000 rpm for 5 min. After centrifugation, a 20 μL aliquot of plasma was mixed with 80 μL of MeCN for deproteinization. Then, the mixture was centrifuged at 9000 rpm for 5 min, and the supernatant was used for HPLC analysis.
Data were expressed as the mean ± standard deviation (SD) for the in vitro and the animal experiments. The number of the data is described for each experiment. The pharmacokinetic parameters were calculated with Phoenix Winnonlin software (version 8.1) while using a non-compartmental model. The abnormal data were eliminated after being analyzed via a Box-type drawing with SPSS software (SPSS Inc., Chicago, IL, USA).

[7] = system: carrageenan-induced paw edema; assay: Carrageenan-induced paw edema in mice after oral bolus zonarol; assay type: in vivo; settings: estimated from current p.o. 100 mg/kg plasma data and earlier 62.5 mg/kg edema result (ref 16)
diet-induced NAFLD = system: diet-induced NAFLD; set-up: method as in PMID 34684455; settings: mice, oral 10 mg/kg/day for 2 weeks; cited from earlier work
[8] = Stability of zonarol with mice plasma during HPLC analysis; assay type: in vitro ADME
Protocol: as §1
The stability of low, medium, and high concentrations of 20, 80, and 320 ng/mL of zonarol mixed with the plasma of mice was performed under different conditions, including storage at room temperature for 4 h, storage at 37 °C for 4 h, and storage at 4 °C for 12 h and subjection to three freeze–thaw cycles. Next, 20 μL aliquots of low, medium, and high concentration zonarol solutions ([…]) were added to polypropylene tubes with 80 μL of blank plasma. Then, 900 μL of MeCN was added to the mixture, after being incubated under the different conditions described above, for deproteinization. The final nominal concentrations of zonarol were 20, 80, and 320 ng/mL. After deproteinization, the mixtures were centrifuged at […] for 5 min, and the supernatants were used for HPLC analysis. The accuracy of the assay was determined by comparing the nominal concentrations with the corresponding calculated concentrations via linear regression. Every concentration of zonarol was measured three times.

[9] = male, ddY, mouse, plasma, po, p.o. 100 mg/kg, n = 5, mean ± SD
[10] = storage at 4 °C for 12 h, prepared 20 ng/mL
[11] = storage at 4 °C for 12 h, prepared 80 ng/mL
[12] = storage at 4 °C for 12 h, prepared 320 ng/mL
[13] = storage at 37 °C for 4 h, prepared 20 ng/mL
[14] = storage at 37 °C for 4 h, prepared 80 ng/mL
[15] = storage at 37 °C for 4 h, prepared 320 ng/mL
[16] = storage at RT for 4 h, prepared 20 ng/mL
[17] = storage at RT for 4 h, prepared 80 ng/mL
[18] = storage at RT for 4 h, prepared 320 ng/mL
[19] = three cycles of freeze-thaw, prepared 20 ng/mL
[20] = three cycles of freeze-thaw, prepared 80 ng/mL
[21] = three cycles of freeze-thaw, prepared 320 ng/mL

O=c1c(O)c(-c2ccc(O)c(O)c2)oc2cc(O)cc(O)c12 [quercetin]
accumulation in the brain ([1]; 0.1%-quercetin-containing diet for 11 weeks): did not induce the accumulation | absolute bioavailability ([2]; variability depended on gastric contents during ingestion): 16%

fucoxanthin
passage through the BBB ([1]; due to hydrophobic properties): pass through the BBB | bioavailability [2]: 0.06%

C=C1CC[C@@H]2C(C)(C)CCC[C@@]2(C)[C@@H]1Cc1cc(O)ccc1O [zonarol]
effect on carrageenan-induced paw edema [3]: significantly suppressed | tissue/body weights (g/g) and visual observation of each tissue vs. mice without bolus treatment ([4]; i.v. 10 mg/kg bolus, data not shown): did not reflect any marked differences | concentration at 30 min ([4]; bolus i.v. 10 mg/kg BW, 30 min, read-out: maximal distribution of zonarol in the brain): 2520 ± 1330 ng/g | concentration at 30 min ([4]; i.v. 10 mg/kg, 30 min after administration, n = 7, mean ± SD, read-out: zonarol content in brain (peak)): 2530 ± 1330 ng/g | concentration at 15 min ([4]; kidney, i.v. 10 mg/kg, n = 7, mean ± SD, read-out: zonarol content in kidney (highest)): 1910 ± 1800 ng/g | concentration at 15 min ([4]; liver, i.v. 10 mg/kg, n = 7, mean ± SD, read-out: zonarol content in liver (highest)): 1320 ± 1040 ng/g | effect on DSS-induced ulcerative colitis [5]: suppressed | time within which plasma concentration remained over the LOQ ([6]; i.v. 10 mg/kg): ≤ 240 min | AUC(0-t) ([6]; male, ddY, mouse, plasma, iv, i.v. 10 mg/kg, 0 to 240 min, n = 6, mean ± SD, read-out: AUC (AUC0-240) (converted)): 608 ng·h/mL | concentration at 5 min ([6]; male, ddY, mouse, plasma, iv, i.v. 10 mg/kg, 5 min): 878 ± 371 ng/mL | bioavailability ([6]; male, ddY, mouse, plasma, oral, (p.o. AUC/p.o. dose)/(i.v. AUC/i.v. dose) × 100, p.o. 100 mg/kg, i.v. 10 mg/kg): 25% | AUC(0-t) ([6]; male, ddY, mouse, plasma, po, p.o. 100 mg/kg, 0 to 480 min, n = 5, mean ± SD, read-out: AUC (AUC0-480) (converted)): 1520 ng·h/mL | Cmax [6, 9]: 723 ± 75.9 ng/mL | Tmax [6, 9]: 1.25 h | time within which plasma concentration remained over the LOQ ([6]; p.o. 100 mg/kg): ≤ 480 min | plasma zonarol required to induce suppressive effects on edema formations [7]: approximately 300 ng/mL | effect on diet-induced NAFLD (diet-induced NAFLD): prevented | accuracy of each group (plasma stability) ([8]; all storage conditions and concentrations of Table 2): 90.8–112.9% | Accuracy (detected/prepared × 100) [8, 10]: 104.9% | Zonarol detected in plasma [8, 10]: 21.0 ± 1.33 ng/mL | Accuracy (detected/prepared × 100) [8, 11]: 92.3% | Zonarol detected in plasma [8, 11]: 73.8 ± 1.98 ng/mL | Accuracy (detected/prepared × 100) [8, 12]: 104.4% | Zonarol detected in plasma [8, 12]: 334.2 ± 10.70 ng/mL | Accuracy (detected/prepared × 100) [8, 13]: 105.8% | Zonarol detected in plasma [8, 13]: 21.2 ± 0.33 ng/mL | Accuracy (detected/prepared × 100) [8, 14]: 90.8% | Zonarol detected in plasma [8, 14]: 72.6 ± 0.53 ng/mL | Accuracy (detected/prepared × 100) [8, 15]: 95.2% | Zonarol detected in plasma [8, 15]: 304.6 ± 6.57 ng/mL | Accuracy (detected/prepared × 100) [8, 16]: 112.9% | Zonarol detected in plasma [8, 16]: 22.6 ± 1.24 ng/mL | Accuracy (detected/prepared × 100) [8, 17]: 91.2% | Zonarol detected in plasma [8, 17]: 73.0 ± 1.72 ng/mL | Accuracy (detected/prepared × 100) [8, 18]: 97.2% | Zonarol detected in plasma [8, 18]: 311.1 ± 2.76 ng/mL | time zonarol remained stable in plasma ([8]; stored at 4 °C): at least 12 h | change of zonarol content in plasma ([8]; stored at RT or 37 °C for 4 h): did not change | Accuracy (detected/prepared × 100) [8, 19]: 107.9% | Zonarol detected in plasma [8, 19]: 21.6 ± 1.44 ng/mL | Accuracy (detected/prepared × 100) [8, 20]: 94.4% | Zonarol detected in plasma [8, 20]: 75.5 ± 2.38 ng/mL | Accuracy (detected/prepared × 100) [8, 21]: 101.7% | Zonarol detected in plasma [8, 21]: 325.5 ± 4.56 ng/mL | effect of three freeze–thaw cycles on quantification in plasma ([8]; three freeze–thaw cycles): no effect
